# Experimental data taken from patent US5854279A, “Therapeutic agent for dermatosis” (Eisai Co., Ltd, priority 1996, dated 1998).
# Structures can show the parent of a compound that is named as a salt.
# Legend:
# [1] = test system: epidermal ornithine decarboxylase (ODC); test: TPA-induced mouse epidermal ornithine decarboxylase (ODC) activity; format: in vivo, hairless mouse (SKH/hr-1); settings: for Epidermal ODC Activity: TPA 17 nmol, average of five cases ± standard error
# Method: (2) Measurement of Mouse Epidermal Ornithine Decarboxylase (ODC) Activity
# 1) Induction of ODC Activity
# The experiment was carried out according to the method by O'Brien et al. (Cancer Research, 1975, 35(2), p 1662-1670).
# […] of acetone solution containing 17 nmol of TPA (phorbol 12-myristate 13-acetate, manufactured by Sigma) and 0.5 to 2 μmol of Compound (II) or 2-(2-acetyl-6-methoxy-3,9-dioxo-4,8-dioxa-2,10-diazaoctacosa-1-yl)-1-ethylpyridinium salt (customary name; CV-6209, manufactured by Wako Junyaku) was homogeneously applied on the skin of the back (about 8 cm^2) of the hairless mouse (strain: SKH/hr-1, female, age in week of 9). After 4.5 hours, mouse was killed by anesthetizing with ether, and skin tissue was excised. The skin tissue was treated at 55° C. for 30 seconds, then ice-cooled and the epidermis was peeled off. To this epidermis, 1 ml of 50 mM sodium phosphate buffer [pH 7.2, 0.4 mM pyridoxal 5-phosphate (manufactured by Sigma), 5 mM dithiothreitol (manufactured by Sigma)] were added, homogenized and then centrifuged at 4° C. and 30,000 g for 30 minutes to obtain a supernatant.
# 2) Measurement of ODC Activity
# ODC activity in the supernatant was measured by ^14 CO2 release from L-[1-^14 C]ornithine (manufactured by Sigma) as an index. A tube containing 50 μl of the above buffer comprising 1 mM L-ornithine and […] L-[1-^14 C]ornithine (manufactured by Amersham) as well as 100 μl of homogenate sample added thereto was rapidly placed into a vial, and sealed. This vial was incubated at 37° C. for one hour, to which was added 0.3 ml of 2M citric acid solution and further incubated for one hour. ^14 CO2 released during this period was trapped by using a filter containing 0.15 ml of NCS solubilizer set in the reaction vial. After removing out the tube, 15 ml of liquid scintillator (ACSII) was added and radioactivity in the vial was measured by using a liquid scintillation counter.
# Further, the concentration of protein in the homogenate sample was quantified by using the above BIO-RAD PROTEIN ASSAY, and the amount of the released ^14 CO2 /mg protein was calculated and used as an index of ODC activity.
# [2] = Acute toxicity test, single intravenous dosage (LD50), mouse; parameters: species or system mouse (Slc:ICR); settings: in vivo
# Excerpt: (§1) Slc:SD rat and Slc:ICR mice (age in week of 6 to 8), each group has 5 male and 5 female, were applied to a toxicity test upon single dosage carried out by intravenous administration.
# [3] = test system: TPA-induced earlobe edema; test: TPA-induced ear edema; format: in vivo, BALB/c mouse; settings: for Right earlobe edema: TPA 2 μmol, average of seven cases ± SEM
# Method: The test was conducted according to the method by Carlson et al. (Agents and Actions, 1985, 17(2), p 197-204).
# (§2) That is, 2 mg of TPA (phorbol 12-myristate 13-acetate, manufactured by Sigma Chemical Co.) and 4 to 100 nmol of Compound (II) or 250 nmol of dexamethasone (manufactured by Sigma Chemical Co.) were dissolved in 20 ml of acetone. The mixture was applied to inner surface of the right earlobe of BALB/c mouse (male, age in week of 8), to induce inflammation. Four hours after TPA application, the mouse was killed by dislocation of cervical vertebrae and the thickness of each right and left earlobe was measured by using a Dial Thickness Gauge (manufactured by Peacock Co., G0.01 to 10 mm) and the difference in thickness between right and left earlobe was considered as edema.
# [4] = test system: MPO (myeloperoxidase); test: MPO activity in TPA-treated earlobe; format: in vivo, BALB/c mouse; settings: for MPO Activity: TPA 2 μmol, average of seven cases ± SEM
# Method: as §2, with “The” for “That is, 2 mg of TPA (phorbol 12-myristate 13-acetate, manufactured by Sigma Chemical Co.) and 4 to 100 nmol of Compound (II) or 250 nmol of dexamethasone (manufactured by Sigma Chemical Co.) were dissolved in 20 ml of acetone. The”
# 2) Measurement of MPO Activity
# After measurement of edema, MPO (myeloperoxidase) activity of the excised right earlobe was measured by the following method. 1 ml of 0.5% HTAB (hexadecyl trimethylammonium bromide, manufactured by Sigma Chemical Co.)/50 mM potassium phosphate buffer, pH 6.0 was added to the excised right earlobe and homogenized. The supernatant obtained after centrifugation was used as an extract. Measurement of MPO activity in the extract was carried out according to a method using a 96-well plate. […] Absorbance at 450 nm was measured for 3 minutes at every 10 seconds. The slope of the straight line obtained for 1 minute after 10 seconds from the beginning of the reaction was calculated for every each sample. MPO activity when the slope is 1 is defined as 1 unit (U), and number of unit in the extract was obtained. Further, the amount of protein in the extract was quantified by BIO-RAD PROTEIN ASSAY (manufactured by Bio-Rad Laboratories), and expressed as MPO activity/mg protein.
# [5] = Acute toxicity test, single intravenous dosage (LD50), rat; parameters: species or system rat (Slc:SD); settings: in vivo
# Excerpt: as §1
# [6] = 2 μmol, Compound (II) p < 0.01 vs. TPA control
# [7] = 2 μmol, significant for Compound (II)
smiles,measurement,setting,value
"CCCCCCCCCCCCCCCCCCNC(=O)OCC(COC(=O)N(Cc1cccc[n+]1CC)C(C)=O)OC (centres unmarked) [CV-6209, 2-(2-acetyl-6-methoxy-3,9-dioxo-4,8-dioxa-2,10-diazaoctacosa-1-yl)-1-ethylpyridinium salt]",Epidermal ODC Activity,[1]; [6],0.374 ± 0.147 nmol CO2 /mg protein
same,inhibition of TPA-induced increase in epidermal ODC activity,[1]; [7],about 53%
"CCCCCCCCCCCCCCCCCCNC(=O)OC1CCN(C(=O)OC[C@H](COC(=O)N(Cc2cccc[n+]2CC)C(=O)c2ccccc2OC)OC)CC1 [Compound (II), 1-ethyl-2-[N-(2-methoxy)benzoyl-N-{(2R)-2-methoxy-3-(4-octadecylcarbamoyloxy)piperidinocarbonyloxypropoxy}carbonyl]aminomethyl pyridinium chloride]",LD50,[2]; female,50 mg/kg
same,LD50,[2]; male,46.8 mg/kg
same,inhibition for TPA-induced earlobe edema,[3]; 4 nmol/ear,no inhibition
same,Right earlobe edema,[3]; 4 nmol/earlobe,105.9 ± 33.4 μm
same,inhibition for TPA-induced earlobe edema,[3]; 20 nmol/ear,no inhibition
same,Right earlobe edema,[3]; 20 nmol/earlobe,92.7 ± 19.8 μm
same,inhibition for TPA-induced earlobe edema,"[3]; 100 nmol/ear, significant",about 81%
same,Right earlobe edema,"[3]; 100 nmol/earlobe, P < 0.05",16.7 ± 3.0 μm
same,inhibition against MPO activity,[4]; 4 nmol/ear,did not show inhibition
same,MPO Activity,[4]; 4 nmol/earlobe,"7.63 ± 1.30 U/mg, protein"
same,inhibition against MPO activity,[4]; 20 nmol/ear,did not show inhibition
same,MPO Activity,[4]; 20 nmol/earlobe,"8.51 ± 1.21 U/mg, protein"
same,inhibition against MPO activity,[4]; 100 nmol/ear,about 46%
same,MPO Activity,[4]; 100 nmol/earlobe,"3.45 ± 1.06 U/mg, protein"
same,LD50,[5]; female,22.9 mg/kg
same,LD50,[5]; male,18.2 mg/kg
same,Epidermal ODC Activity,"[1]; 0.5 μmol, P < 0.05 vs. TPA control",0.379 ± 0.130 nmol CO2 /mg protein
same,inhibition of TPA-induced increase in epidermal ODC activity,"[1]; 0.5 μmol, significant",about 52%
same,Epidermal ODC Activity,[1]; [6],0.136 ± 0.066 nmol CO2 /mg protein
same,inhibition of TPA-induced increase in epidermal ODC activity,[1]; [7],~83%
"C[C@@H]1C[C@H]2[C@@H]3CCC4=CC(=O)C=C[C@]4(C)[C@@]3(F)[C@@H](O)C[C@]2(C)[C@@]1(O)C(=O)CO [Dexamethasone, dexamethasone, reference compound]",inhibition for TPA-induced earlobe edema,"[3]; 250 nmol/ear, significant",about 60%
same,Right earlobe edema,"[3]; 250 nmol/earlobe, P < 0.05",34.7 ± 3.3 μm
same,inhibition against MPO activity,[4]; 250 nmol/ear,about 13%
same,MPO Activity,[4]; 250 nmol/earlobe,"5.52 ± 0.59 U/mg, protein"
